Laboratory results taken from patent publication US20230085307A1, “PYRIDAZINONE COMPOUND AND HERBICIDE” (NISSAN CHEMICAL CORPORATION, priority 2019, published 2023).

Tests used:
[1] = system: persian speedwell; experiment: Test Example 5: herbicidal effect by foliage application, plastic box (Table 20, symbol R); assay type: in vivo, Persian speedwell (Veronica persica); details: 320 g/ha, foliage application after 14-day growth, evaluated three weeks after application
Summary of the method: (§1)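 Plants sown in sterilized diluvial soil and grown 14 days in a greenhouse at 25° C to 30° C, then sprayed on the foliage with the compound's emulsion diluted in water to a predetermined herbicide amount. Injury to weeds and crops scored three weeks after application on a visual rating scale.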

[2] = system: persian speedwell; experiment: Test Example 4: herbicidal effect by soil treatment (Table 19, symbol R); assay type: in vivo, Persian speedwell (Veronica persica); details: amount of applied herbicide 320 g/ha
Summary of the method: (§2)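 Three weeks of greenhouse growth at 25° C. to 30° C. followed a uniform surface spray of water-diluted emulsion at a predetermined herbicide amount. Seeds had been sown beforehand under about 1.5 cm of sterilized diluvial soil. Grading followed criteria set out in an earlier test.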

[3] = system: chickweed; experiment: Test Example 4: herbicidal effect by soil treatment (Table 19, symbol P); assay type: in vivo, common chickweed (Stellaria media); details: amount of applied herbicide 320 g/ha
Summary of the method: as §2

[4] = system: windgrass; experiment: Test Example 4: herbicidal effect by soil treatment (Table 19, symbol L); assay type: in vivo, windgrass (Apera spica-venti); details: amount of applied herbicide 320 g/ha
Summary of the method: as §2

[5] = system: barnyard grass; experiment: Test Example 3: herbicidal effect by foliage application, Wagner pot (Table 18, symbol H); assay type: in vivo, barnyard grass (Echinochloa crus-galli); details: 320 g/ha
Summary of the method: (§3)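 Plants were sown in alluvial soil held under 0.1–0.5 cm standing water and grown 14 days in a greenhouse at 25–30 °C. An emulsifiable formulation, water-diluted to the set dose, was then sprayed onto the foliage, and effects were scored three weeks later using previously defined criteria.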

[6] = system: southern crabgrass; experiment: Test Example 5: herbicidal effect by foliage application, plastic box (Table 20, symbol F); assay type: in vivo, southern crabgrass (Digitaria ciliaris); details: 320 g/ha, foliage application after 14-day growth, evaluated three weeks after application
Summary of the method: as §1

[7] = system: velvetleaf; experiment: Test Example 4: herbicidal effect by soil treatment (Table 19, symbol M); assay type: in vivo, velvetleaf (Abutilon theophrasti); details: amount of applied herbicide 320 g/ha
Summary of the method: as §2

[8] = system: barnyard grass; experiment: Test Example 4: herbicidal effect by soil treatment (Table 19, symbol H); assay type: in vivo, barnyard grass (Echinochloa crus-galli); details: amount of applied herbicide 320 g/ha
Summary of the method: as §2

[9] = system: chickweed; experiment: Test Example 5: herbicidal effect by foliage application, plastic box (Table 20, symbol P); assay type: in vivo, common chickweed (Stellaria media); details: 320 g/ha, foliage application after 14-day growth, evaluated three weeks after application
Summary of the method: as §1

[10] = system: blackgrass; experiment: Test Example 4: herbicidal effect by soil treatment (Table 19, symbol J); assay type: in vivo, blackgrass (Alopecurus myosuroides); details: amount of applied herbicide 320 g/ha
Summary of the method: as §2

[11] = system: barnyard grass; experiment: Test Example 5: herbicidal effect by foliage application, plastic box (Table 20, symbol H); assay type: in vivo, barnyard grass (Echinochloa crus-galli); details: 320 g/ha, foliage application after 14-day growth, evaluated three weeks after application
Summary of the method: as §1

[12] = system: rice flat sedge; experiment: Test Example 3: herbicidal effect by foliage application, Wagner pot (Table 18, symbol E); assay type: in vivo, rice flat sedge (Cyperus iria); details: 320 g/ha
Summary of the method: as §3

[13] = system: lambsquarters; experiment: Test Example 5: herbicidal effect by foliage application, plastic box (Table 20, symbol O); assay type: in vivo, lambsquarters (Chenopodium album); details: 320 g/ha, foliage application after 14-day growth, evaluated three weeks after application
Summary of the method: as §1

[14] = system: redroot pigweed; experiment: Test Example 4: herbicidal effect by soil treatment (Table 19, symbol N); assay type: in vivo, redroot pigweed (Amaranthus retroflexus); details: amount of applied herbicide 320 g/ha
Summary of the method: as §2

[15] = system: blackgrass; experiment: Test Example 5: herbicidal effect by foliage application, plastic box (Table 20, symbol J); assay type: in vivo, blackgrass (Alopecurus myosuroides); details: 320 g/ha, foliage application after 14-day growth, evaluated three weeks after application
Summary of the method: as §1

[16] = system: lambsquarters; experiment: Test Example 4: herbicidal effect by soil treatment (Table 19, symbol O); assay type: in vivo, lambsquarters (Chenopodium album); details: amount of applied herbicide 320 g/ha
Summary of the method: as §2

[17] = system: velvetleaf; experiment: Test Example 5: herbicidal effect by foliage application, plastic box (Table 20, symbol M); assay type: in vivo, velvetleaf (Abutilon theophrasti); details: 320 g/ha, foliage application after 14-day growth, evaluated three weeks after application
Summary of the method: as §1

[18] = system: wild oat; experiment: Test Example 4: herbicidal effect by soil treatment (Table 19, symbol I); assay type: in vivo, wild oat (Avena fatua); details: amount of applied herbicide 320 g/ha
Summary of the method: as §2

[19] = system: green foxtail; experiment: Test Example 4: herbicidal effect by soil treatment (Table 19, symbol G); assay type: in vivo, green foxtail (Setaria viridis); details: amount of applied herbicide 320 g/ha
Summary of the method: as §2

[20] = system: Italian ryegrass; experiment: Test Example 5: herbicidal effect by foliage application, plastic box (Table 20, symbol K); assay type: in vivo, Italian ryegrass (Lolium multiflorum); details: 320 g/ha, foliage application after 14-day growth, evaluated three weeks after application
Summary of the method: as §1

[21] = system: green foxtail; experiment: Test Example 5: herbicidal effect by foliage application, plastic box (Table 20, symbol G); assay type: in vivo, green foxtail (Setaria viridis); details: 320 g/ha, foliage application after 14-day growth, evaluated three weeks after application
Summary of the method: as §1

[22] = system: wild oat; experiment: Test Example 5: herbicidal effect by foliage application, plastic box (Table 20, symbol I); assay type: in vivo, wild oat (Avena fatua); details: 320 g/ha, foliage application after 14-day growth, evaluated three weeks after application
Summary of the method: as §1

[23] = system: redroot pigweed; experiment: Test Example 5: herbicidal effect by foliage application, plastic box (Table 20, symbol N); assay type: in vivo, redroot pigweed (Amaranthus retroflexus); details: 320 g/ha, foliage application after 14-day growth, evaluated three weeks after application
Summary of the method: as §1

[24] = system: Chinese sprangletop; experiment: Test Example 3: herbicidal effect by foliage application, Wagner pot (Table 18, symbol D); assay type: in vivo, chinese sprangletop (Leptochloa chinensis); details: 320 g/ha
Summary of the method: as §3

[25] = system: windgrass; experiment: Test Example 5: herbicidal effect by foliage application, plastic box (Table 20, symbol L); assay type: in vivo, windgrass (Apera spica-venti); details: 320 g/ha, foliage application after 14-day growth, evaluated three weeks after application
Summary of the method: as §1

[26] = system: southern crabgrass; experiment: Test Example 4: herbicidal effect by soil treatment (Table 19, symbol F); assay type: in vivo, southern crabgrass (Digitaria ciliaris); details: amount of applied herbicide 320 g/ha
Summary of the method: as §2

[27] = system: Italian ryegrass; experiment: Test Example 4: herbicidal effect by soil treatment (Table 19, symbol K); assay type: in vivo, Italian ryegrass (Lolium multiflorum); details: amount of applied herbicide 320 g/ha
Summary of the method: as §2

Structure (SMILES)	herbicidal effect on R: persian speedwell (evaluation grade 0-5) [1]	Herbicidal effect by soil treatment, R: persian speedwell [2]	Herbicidal effect by soil treatment, P: chickweed [3]	Herbicidal effect by soil treatment, L: windgrass [4]	herbicidal effect on barnyard grass (H) [5]	herbicidal effect on F: southern crabgrass (evaluation grade 0-5) [6]	Herbicidal effect by soil treatment, M: velvetleaf [7]	Herbicidal effect by soil treatment, H: barnyard grass [8]	herbicidal effect on P: chickweed (evaluation grade 0-5) [9]	Herbicidal effect by soil treatment, J: blackgrass [10]	herbicidal effect on H: barnyard grass (evaluation grade 0-5) [11]	herbicidal effect on rice flat sedge (E) [12]	herbicidal effect on O: lambsquarters (evaluation grade 0-5) [13]	Herbicidal effect by soil treatment, N: redroot pigweed [14]	herbicidal effect on J: blackgrass (evaluation grade 0-5) [15]	Herbicidal effect by soil treatment, O: lambsquarters [16]	herbicidal effect on M: velvetleaf (evaluation grade 0-5) [17]	Herbicidal effect by soil treatment, I: wild oat [18]	Herbicidal effect by soil treatment, G: green foxtail [19]	herbicidal effect on K: Italian ryegrass (evaluation grade 0-5) [20]	further results
Cc1nn(C)c(=O)c(-c2c(-c3ccc(OC(F)(F)F)cc3)sc3c(F)cccc23)c1O [4-048]	5 (Herbicidal rate of 90% or more (almost completely withered))	5 (Herbicidal rate of 90% or more (almost completely withered))	1 (Herbicidal rate of 5% or more and less than 20%)	0 (Herbicidal rate of 5% or less (almost no effect))	5 (Herbicidal rate of 90% or more (almost completely withered))	1 (Herbicidal rate of 5% or more and less than 20%)	0 (Herbicidal rate of 5% or less (almost no effect))	2 (Herbicidal rate of 20% or more and less than 40%)	5 (Herbicidal rate of 90% or more (almost completely withered))	0 (Herbicidal rate of 5% or less (almost no effect))	5 (Herbicidal rate of 90% or more (almost completely withered))	5 (Herbicidal rate of 90% or more (almost completely withered))	3 (Herbicidal rate of 40% or more and less than 70%)	3 (Herbicidal rate of 40% or more and less than 70%)	0 (Herbicidal rate of 5% or less (almost no effect))	1 (Herbicidal rate of 5% or more and less than 20%)	3 (Herbicidal rate of 40% or more and less than 70%)	0 (Herbicidal rate of 5% or less (almost no effect))	0 (Herbicidal rate of 5% or less (almost no effect))	4 (Herbicidal rate of 70% or more and less than 90%)	herbicidal effect on G: green foxtail (evaluation grade 0-5) [21]: 5 (Herbicidal rate of 90% or more (almost completely withered)); herbicidal effect on I: wild oat (evaluation grade 0-5) [22]: 3 (Herbicidal rate of 40% or more and less than 70%); herbicidal effect on N: redroot pigweed (evaluation grade 0-5) [23]: 5 (Herbicidal rate of 90% or more (almost completely withered)); herbicidal effect on Chinese sprangletop (D) [24]: 5 (Herbicidal rate of 90% or more (almost completely withered)); herbicidal effect on L: windgrass (evaluation grade 0-5) [25]: 5 (Herbicidal rate of 90% or more (almost completely withered)); Herbicidal effect by soil treatment, F: southern crabgrass [26]: 1 (Herbicidal rate of 5% or more and less than 20%); Herbicidal effect by soil treatment, K: Italian ryegrass [27]: 0 (Herbicidal rate of 5% or less (almost no effect))
COc1cc(F)ccc1-c1sc2c(F)cccc2c1-c1c(O)c(C)nn(C)c1=O [4-011]	5 (Herbicidal rate of 90% or more (almost completely withered))	0 (Herbicidal rate of 5% or less (almost no effect))	3 (Herbicidal rate of 40% or more and less than 70%)	0 (Herbicidal rate of 5% or less (almost no effect))	4 (Herbicidal rate of 70% or more and less than 90%)	2 (Herbicidal rate of 20% or more and less than 40%)	0 (Herbicidal rate of 5% or less (almost no effect))	3 (Herbicidal rate of 40% or more and less than 70%)	5 (Herbicidal rate of 90% or more (almost completely withered))	0 (Herbicidal rate of 5% or less (almost no effect))	3 (Herbicidal rate of 40% or more and less than 70%)	5 (Herbicidal rate of 90% or more (almost completely withered))	3 (Herbicidal rate of 40% or more and less than 70%)	2 (Herbicidal rate of 20% or more and less than 40%)	3 (Herbicidal rate of 40% or more and less than 70%)	3 (Herbicidal rate of 40% or more and less than 70%)	3 (Herbicidal rate of 40% or more and less than 70%)	0 (Herbicidal rate of 5% or less (almost no effect))	3 (Herbicidal rate of 40% or more and less than 70%)	3 (Herbicidal rate of 40% or more and less than 70%)	herbicidal effect on G: green foxtail (evaluation grade 0-5) [21]: 5 (Herbicidal rate of 90% or more (almost completely withered)); herbicidal effect on I: wild oat (evaluation grade 0-5) [22]: 0 (Herbicidal rate of 5% or less (almost no effect)); herbicidal effect on N: redroot pigweed (evaluation grade 0-5) [23]: 3 (Herbicidal rate of 40% or more and less than 70%); herbicidal effect on Chinese sprangletop (D) [24]: 3 (Herbicidal rate of 40% or more and less than 70%); herbicidal effect on L: windgrass (evaluation grade 0-5) [25]: 3 (Herbicidal rate of 40% or more and less than 70%); Herbicidal effect by soil treatment, F: southern crabgrass [26]: 0 (Herbicidal rate of 5% or less (almost no effect)); Herbicidal effect by soil treatment, K: Italian ryegrass [27]: 0 (Herbicidal rate of 5% or less (almost no effect))
